From PubChem BioAssay (NCI)
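Tested at 5 concentrations; 48 h exposure; 96-well plates; endpoints linearly interpolated, else capped at highest concentration. GI50 marks 50% less growth. TGI marks complete inhibition of growth.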

Key:
Test in all cases: NCI tumour cell line growth inhibition, 48 h
OVCAR-5 ovarian = test system: OVCAR-5 ovarian
NCI-H23 lung = test system: NCI-H23 lung
SNB-75 CNS = test system: SNB-75 CNS
BT-549 breast = test system: BT-549 breast
COLO 205 colon = test system: COLO 205 colon
MOLT-4 leukemia = test system: MOLT-4 leukemia
K-562 leukemia = test system: K-562 leukemia
LOX IMVI melanoma = test system: LOX IMVI melanoma
HS 578T breast = test system: HS 578T breast
A549 NSCLC = test system: A549 NSCLC
NCI-H226 lung = test system: NCI-H226 lung
CCRF-CEM leukemia = test system: CCRF-CEM leukemia
SNB-19 CNS = test system: SNB-19 CNS
HT29 colon = test system: HT29 colon
UO-31 renal = test system: UO-31 renal
MCF7 breast = test system: MCF7 breast
HCC-2998 colon = test system: HCC-2998 colon

Q: Which TGI (OVCAR-5 ovarian) does the source give for COC(=O)[C@@H]1O[C@]12[C@@H](CO[Si](C)(C)C(C)(C)C)O[C@@H](n1cc(C)c(=O)[nH]c1=O)[C@@H]2O[Si](C)(C)C(C)(C)C here?
A: 36.6 µM

Q: What about the TGI (NCI-H23 lung) of the same compound?
A: 40.5 µM

Q: What about the TGI (SNB-75 CNS) of the same compound?
A: > 100 µM

Q: And the TGI (BT-549 breast)?
A: 32.6 µM

Q: And the TGI (COLO 205 colon)?
A: > 100 µM

Q: And the TGI (MOLT-4 leukemia)?
A: 7.42 µM

Q: And the TGI (K-562 leukemia)?
A: 40.2 µM

Q: And the TGI (LOX IMVI melanoma)?
A: 10.2 µM

Q: What about the TGI (HS 578T breast) of the same compound?
A: 42.5 µM

Q: What about the TGI (A549 NSCLC) of the same compound?
A: 64 µM

Q: What about the TGI (NCI-H226 lung) of the same compound?
A: 45.5 µM

Q: And the TGI (CCRF-CEM leukemia)?
A: 4.79 µM

Q: What about the TGI (SNB-19 CNS) of the same compound?
A: 26 µM

Q: And the TGI (HT29 colon)?
A: 18.1 µM

Q: How did the GI50 (UO-31 renal) turn out when c1cc2ccc1CNCCN1CCNCc3ccc(cc3)Oc3ccc(cc3)CNCCN(CCNCc3ccc(cc3)O2)CCNCc2ccc(cc2)Oc2ccc(cc2)CNCC1 was run?
A: 11.3 µM

Q: And the TGI (UO-31 renal)?
A: 26.4 µM

Q: And the GI50 (MCF7 breast)?
A: 0.581 µM

Q: What about the TGI (MCF7 breast) of the same compound?
A: 2.1 µM

Q: What about the GI50 (HCC-2998 colon) of the same compound?
A: 0.659 µM

Q: What about the TGI (HCC-2998 colon) of the same compound?
A: 1.99 µM
